One data set has as its system SW480. The experiment in a line: Antiproliferative activity against human SW480 cells assessed as reduction in cell viability incubated for 72 hrs by MTT assay. The format is functional, cell-based. The note with it: SW480, 72 h. In general terms: Formazan colour is commonly taken as a measure of viable cells.
For data set [1], the target named is Phosphatidylinositol 4,5-bisphosphate 3-kinase catalytic subunit alpha isoform (Homo sapiens, UniProt P42336). The experiment in a line: Inhibition of PI3K alpha (unknown origin).
The test system of data set [2] is U2OS. The experiment in a line: cells. The settings on record: Homo sapiens.
Data set [3] deals with Phosphatidylinositol 3-kinase catalytic subunit type 3 (Homo sapiens, UniProt Q8NEB9). The experiment in a line: Binding affinity to Vps34 (unknown origin) assessed as inhibition constant.
Data set [4] deals with T1, Serine-protein kinase ATM (Homo sapiens, UniProt Q13315). The experiment in a line: Binding affinity to ATM (unknown origin) assessed as inhibition constant.
The subject of data set [5] is U2OS. The experiment in a line: Cytotoxicity against human U2OS cells assessed as reduction in cell viability incubated for 48 hrs by MTT assay. The format is functional, cell-based.
In a further data set the test system is MCF7. Briefly: cells. The note with it: Homo sapiens.
Data set [6] can be described thus: Inhibition of PI3K (unknown origin). The arrangement: species or system Homo sapiens.
Data set [7] in a line: Half life in human liver microsomes. The format is ADME, Microsome. For orientation: Liver microsomes are a subcellular fraction often used to study metabolism.
For data set [8], the target named is T1, Serine-protein kinase ATM. The experiment in a line: Inhibition of ATM (unknown origin).
In data set [9] the target is Serine/threonine-protein kinase mTOR (Homo sapiens, UniProt P42345). The experiment in a line: Inhibition of mTOR (unknown origin).

T1 sequence (Q13315 whole entry): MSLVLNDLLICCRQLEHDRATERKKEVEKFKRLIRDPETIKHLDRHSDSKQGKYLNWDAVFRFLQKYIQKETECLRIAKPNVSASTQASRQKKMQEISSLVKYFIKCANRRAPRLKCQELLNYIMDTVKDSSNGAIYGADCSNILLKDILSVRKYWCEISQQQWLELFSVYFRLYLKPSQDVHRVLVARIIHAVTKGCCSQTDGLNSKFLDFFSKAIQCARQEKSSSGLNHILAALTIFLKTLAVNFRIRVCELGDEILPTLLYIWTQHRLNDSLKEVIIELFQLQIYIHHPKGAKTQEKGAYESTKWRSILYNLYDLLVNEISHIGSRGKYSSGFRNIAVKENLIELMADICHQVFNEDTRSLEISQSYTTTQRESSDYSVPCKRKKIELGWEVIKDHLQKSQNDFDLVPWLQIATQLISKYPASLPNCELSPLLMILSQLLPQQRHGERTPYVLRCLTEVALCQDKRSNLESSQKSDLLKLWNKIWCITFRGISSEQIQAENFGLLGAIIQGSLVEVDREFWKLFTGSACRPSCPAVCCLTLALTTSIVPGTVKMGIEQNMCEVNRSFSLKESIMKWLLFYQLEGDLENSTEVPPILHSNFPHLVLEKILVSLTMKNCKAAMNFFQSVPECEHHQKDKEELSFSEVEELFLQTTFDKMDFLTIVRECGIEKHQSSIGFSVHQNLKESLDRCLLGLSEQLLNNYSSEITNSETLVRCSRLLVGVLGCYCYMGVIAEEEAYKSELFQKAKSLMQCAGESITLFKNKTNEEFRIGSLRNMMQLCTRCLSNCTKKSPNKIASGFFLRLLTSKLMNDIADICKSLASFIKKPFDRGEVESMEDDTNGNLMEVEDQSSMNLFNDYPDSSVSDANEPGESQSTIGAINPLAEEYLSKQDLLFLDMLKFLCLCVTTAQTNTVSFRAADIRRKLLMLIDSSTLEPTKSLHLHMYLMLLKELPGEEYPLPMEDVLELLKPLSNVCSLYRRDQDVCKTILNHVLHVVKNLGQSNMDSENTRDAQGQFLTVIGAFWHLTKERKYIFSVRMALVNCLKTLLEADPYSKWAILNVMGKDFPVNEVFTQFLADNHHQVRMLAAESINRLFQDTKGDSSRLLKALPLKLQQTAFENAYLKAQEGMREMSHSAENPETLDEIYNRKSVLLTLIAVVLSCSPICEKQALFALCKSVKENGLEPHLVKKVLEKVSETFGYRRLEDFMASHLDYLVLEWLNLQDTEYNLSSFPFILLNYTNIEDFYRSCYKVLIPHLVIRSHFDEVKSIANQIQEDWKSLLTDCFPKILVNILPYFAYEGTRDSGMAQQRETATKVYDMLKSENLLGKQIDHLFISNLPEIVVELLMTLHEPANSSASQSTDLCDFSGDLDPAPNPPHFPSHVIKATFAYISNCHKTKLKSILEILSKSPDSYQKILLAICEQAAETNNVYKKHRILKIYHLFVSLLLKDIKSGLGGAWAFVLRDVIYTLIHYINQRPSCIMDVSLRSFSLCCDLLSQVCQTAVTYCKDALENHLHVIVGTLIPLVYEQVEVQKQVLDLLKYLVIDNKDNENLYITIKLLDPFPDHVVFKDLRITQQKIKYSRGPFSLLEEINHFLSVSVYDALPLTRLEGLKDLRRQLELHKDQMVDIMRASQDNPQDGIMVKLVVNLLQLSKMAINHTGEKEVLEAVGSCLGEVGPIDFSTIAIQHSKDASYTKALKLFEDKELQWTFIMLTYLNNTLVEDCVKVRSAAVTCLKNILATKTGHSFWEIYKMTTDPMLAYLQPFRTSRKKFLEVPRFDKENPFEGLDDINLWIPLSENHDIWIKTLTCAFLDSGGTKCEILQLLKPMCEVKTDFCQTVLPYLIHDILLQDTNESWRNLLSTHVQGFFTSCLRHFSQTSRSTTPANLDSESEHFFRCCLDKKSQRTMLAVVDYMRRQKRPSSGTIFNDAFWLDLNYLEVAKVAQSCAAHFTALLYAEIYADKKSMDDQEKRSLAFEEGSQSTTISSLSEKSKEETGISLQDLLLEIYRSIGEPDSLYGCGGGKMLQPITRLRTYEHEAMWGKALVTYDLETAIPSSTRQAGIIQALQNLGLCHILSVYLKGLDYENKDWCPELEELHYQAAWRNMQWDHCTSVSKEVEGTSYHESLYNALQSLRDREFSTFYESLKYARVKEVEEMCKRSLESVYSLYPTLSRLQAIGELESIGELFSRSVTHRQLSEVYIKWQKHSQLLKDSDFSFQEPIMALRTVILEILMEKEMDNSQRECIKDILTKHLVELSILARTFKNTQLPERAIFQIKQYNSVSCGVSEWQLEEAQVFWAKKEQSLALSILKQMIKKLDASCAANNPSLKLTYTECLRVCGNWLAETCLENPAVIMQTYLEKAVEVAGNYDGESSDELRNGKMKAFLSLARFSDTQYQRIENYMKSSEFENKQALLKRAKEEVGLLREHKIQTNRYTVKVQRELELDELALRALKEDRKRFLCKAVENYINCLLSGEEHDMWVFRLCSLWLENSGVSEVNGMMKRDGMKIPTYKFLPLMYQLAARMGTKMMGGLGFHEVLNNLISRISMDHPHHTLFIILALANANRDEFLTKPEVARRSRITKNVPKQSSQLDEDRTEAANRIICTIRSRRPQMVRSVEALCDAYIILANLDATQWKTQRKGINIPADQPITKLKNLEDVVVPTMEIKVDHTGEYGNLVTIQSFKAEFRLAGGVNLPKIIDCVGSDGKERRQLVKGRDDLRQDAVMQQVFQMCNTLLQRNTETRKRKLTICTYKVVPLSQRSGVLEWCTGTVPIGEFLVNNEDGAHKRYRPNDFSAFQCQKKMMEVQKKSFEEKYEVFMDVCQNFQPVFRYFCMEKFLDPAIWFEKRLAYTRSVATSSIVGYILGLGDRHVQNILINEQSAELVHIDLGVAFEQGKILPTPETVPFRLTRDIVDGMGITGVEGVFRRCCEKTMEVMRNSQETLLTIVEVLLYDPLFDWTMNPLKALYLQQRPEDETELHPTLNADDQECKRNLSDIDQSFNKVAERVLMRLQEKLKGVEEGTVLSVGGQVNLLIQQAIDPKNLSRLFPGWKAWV
Phosphatidylinositol 3-kinase catalytic subunit type 3, sequence (Q8NEB9 whole entry): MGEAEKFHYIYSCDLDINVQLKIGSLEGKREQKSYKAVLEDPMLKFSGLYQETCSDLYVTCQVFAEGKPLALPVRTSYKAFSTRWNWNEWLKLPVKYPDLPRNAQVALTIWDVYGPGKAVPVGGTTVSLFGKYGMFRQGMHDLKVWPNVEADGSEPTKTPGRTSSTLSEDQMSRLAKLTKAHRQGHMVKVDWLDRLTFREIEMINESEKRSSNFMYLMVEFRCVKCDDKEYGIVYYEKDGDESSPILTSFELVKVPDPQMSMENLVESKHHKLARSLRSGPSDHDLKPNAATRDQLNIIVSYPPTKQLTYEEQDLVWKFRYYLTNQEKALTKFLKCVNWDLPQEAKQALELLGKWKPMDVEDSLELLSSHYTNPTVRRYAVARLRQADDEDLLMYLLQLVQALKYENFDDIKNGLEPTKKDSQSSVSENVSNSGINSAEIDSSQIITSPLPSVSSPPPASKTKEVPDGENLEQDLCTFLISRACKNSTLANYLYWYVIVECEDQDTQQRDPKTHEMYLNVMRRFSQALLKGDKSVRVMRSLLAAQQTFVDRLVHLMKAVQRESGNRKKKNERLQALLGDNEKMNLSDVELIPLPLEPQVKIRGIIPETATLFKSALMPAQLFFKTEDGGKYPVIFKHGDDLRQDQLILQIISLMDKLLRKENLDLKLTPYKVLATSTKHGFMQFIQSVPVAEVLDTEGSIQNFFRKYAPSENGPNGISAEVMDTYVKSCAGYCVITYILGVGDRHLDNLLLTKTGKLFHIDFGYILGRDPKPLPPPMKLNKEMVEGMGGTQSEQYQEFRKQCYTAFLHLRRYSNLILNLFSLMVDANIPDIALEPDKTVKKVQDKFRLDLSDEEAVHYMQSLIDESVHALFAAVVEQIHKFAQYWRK
Phosphatidylinositol 4,5-bisphosphate 3-kinase catalytic subunit alpha isoform, sequence (P42336 whole entry, canonical isoform): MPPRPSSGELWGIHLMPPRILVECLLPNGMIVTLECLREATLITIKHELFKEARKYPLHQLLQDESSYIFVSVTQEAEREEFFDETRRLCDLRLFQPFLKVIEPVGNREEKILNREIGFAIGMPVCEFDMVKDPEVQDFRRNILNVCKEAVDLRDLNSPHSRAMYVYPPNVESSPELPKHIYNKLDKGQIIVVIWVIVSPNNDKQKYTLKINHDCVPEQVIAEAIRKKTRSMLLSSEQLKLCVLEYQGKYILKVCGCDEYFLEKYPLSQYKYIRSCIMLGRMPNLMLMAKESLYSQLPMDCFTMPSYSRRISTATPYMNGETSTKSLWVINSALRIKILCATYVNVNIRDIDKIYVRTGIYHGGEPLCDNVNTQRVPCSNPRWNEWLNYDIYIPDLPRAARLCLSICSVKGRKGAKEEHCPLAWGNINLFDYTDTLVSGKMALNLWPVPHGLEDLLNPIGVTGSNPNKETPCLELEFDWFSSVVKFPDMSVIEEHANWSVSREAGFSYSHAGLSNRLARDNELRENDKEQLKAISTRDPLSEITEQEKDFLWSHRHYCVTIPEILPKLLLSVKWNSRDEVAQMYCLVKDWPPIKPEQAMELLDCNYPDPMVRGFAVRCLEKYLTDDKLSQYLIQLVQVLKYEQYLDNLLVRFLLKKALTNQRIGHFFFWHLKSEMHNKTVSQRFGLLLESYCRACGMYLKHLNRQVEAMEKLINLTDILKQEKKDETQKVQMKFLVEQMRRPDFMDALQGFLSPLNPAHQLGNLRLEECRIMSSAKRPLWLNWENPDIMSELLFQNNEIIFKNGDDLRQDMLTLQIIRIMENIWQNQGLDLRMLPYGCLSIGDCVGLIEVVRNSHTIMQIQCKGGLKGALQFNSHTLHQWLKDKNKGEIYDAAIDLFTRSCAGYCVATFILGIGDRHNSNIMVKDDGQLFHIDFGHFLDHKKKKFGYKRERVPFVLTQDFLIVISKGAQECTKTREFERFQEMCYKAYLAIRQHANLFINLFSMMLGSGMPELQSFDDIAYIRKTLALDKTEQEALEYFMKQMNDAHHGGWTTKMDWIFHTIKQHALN
Description for MCF7: Antiproliferative activity against human MCF7 cells assessed as reduction in cell growth

As usually defined, the IC50 is the concentration that gives 50% inhibition. As to `CNC(=O)c1ccc(-c2cnc3cnc(-c4ccccc4)cn23)cc1`, the IC50 with SW480 was 6200 nM.
Take `CN1CCN(CCC(=O)Nc2ccc3c(c2)Sc2cccc(-c4cc(=O)cc(N5CCOCC5)o4)c2S3)CC1`: the IC50 in [1] was 3 nM.
By Ki is commonly meant a measure of affinity in units of concentration, obtained from inhibition or displacement. On to `O=c1cc(N2CCOCC2)cc(N2C[C@@H]3C[C@@H]3[C@H]2Cc2ccccc2)[nH]1`, for which half-maximal inhibition in the data set on U2OS [2] (IC50) required 300 nM. Besides, the Ki stood at 90 nM in [3] and 2 nM in data set [4].
In the case of `COc1ccc2c(c1)Cc1cccc(-c3cc(=O)cc(N4CCOCC4)o3)c1S2`, the values for the IC50 (in data set [1]; in the data set with U2OS [5]) were 5 nM and 910 nM, respectively.
Molecule `COc1cc2ncnc(-n3cc(-c4ccccn4)nc3N)c2cc1OC` returned an IC50 with MCF7 of 370 nM.
Take `O=c1cc(N2CCOCC2)cc(N2CCCCC[C@H]2Cc2ccccc2)[nH]1`: in the data set with U2OS [2], the midpoint of inhibition, the IC50, lay at 230 nM. In addition, the Ki in data set [3] worked out at 50 nM; in data set [4], 1 nM.
With `C[C@@H]1CN(CC(=O)Nc2ccc3c(c2)Cc2cccc(-c4cc(=O)cc(N5CCOCC5)o4)c2S3)C[C@H](C)O1`, the IC50 in data set [6] worked out at 6 nM.
In the data set with U2OS [2], `C[C@H]1CCN(c2nc(N3CCOCC3)cc(=O)[nH]2)[C@@H]1Cc1ccccc1` returned an IC50 of 90 nM. Also, the Ki was 6 nM in [3] and 0.4 nM in data set [4].
The corresponding values for `O=c1cc(N2CCOCC2)cc(N2CC3CC3[C@H]2Cc2ccccc2)[nH]1` (some centres not stated) are 3400 nM, 9 nM and 6 nM.
The half-life is the time needed for the level to fall by half in the phase considered. The molecule `CC(C)NC(=O)N(C)c1cnc2ccc(-c3ccc(OCCCN4CCCCC4)nc3)cc2n1` showed a half-life in data set [7] of 12.8 h.
For the molecule `COCCOc1cc2c(-n3cc(-c4ccccn4)nc3N)ncnc2cc1OC`, the IC50 in the data set with MCF7 worked out at 1200 nM.
Turning to `C=C1C(=O)OCC1C(=O)N1Cc2cc3ccccc3nc2C1` (configuration not stated), the figures for the IC50 in data set [8] and in [9] were 600 nM and 7000 nM, respectively.

Source of the values: ChEMBL document CHEMBL5584330, “Small Molecular Inhibitors That Target ATM for Drug Discovery: Current Research and Potential Prospective” (J Med Chem, 2024).
